Test results taken from publication PMC3042382, “The evolution of farnesoid X, vitamin D, and pregnane X receptors: insights from the green-spotted pufferfish (Tetraodon nigriviridis) and other non-mammalian species” (BMC Biochemistry, 2011).
Where two headings read alike, the source gives them in different places.

Legend:
[1] = molecular target: T1, tnPXR (Tetraodon PXR, GAL4/LBD) (Tetraodon nigroviridis, UniProt H3D8U6); experiment: cell-based; design: GAL4/LBD chimera luciferase transactivation, normalised to beta-galactosidase, efficacy relative to maximal activator; settings: HepG2-NTCP; relative to 50 uM 5α-androstan-3α-ol; read-out: Efficacy
T1 construct: cloned from liver RNA
T1 sequence (H3D8U6 123-404): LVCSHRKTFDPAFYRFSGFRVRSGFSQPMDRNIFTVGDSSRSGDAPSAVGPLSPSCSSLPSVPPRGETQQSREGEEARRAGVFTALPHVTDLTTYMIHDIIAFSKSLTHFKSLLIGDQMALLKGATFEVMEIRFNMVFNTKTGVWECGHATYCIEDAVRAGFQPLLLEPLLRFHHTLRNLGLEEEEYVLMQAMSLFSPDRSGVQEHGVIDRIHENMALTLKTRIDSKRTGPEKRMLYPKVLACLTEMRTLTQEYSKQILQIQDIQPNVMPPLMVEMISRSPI
Method: (§1) The creation of a HepG2 (human liver) cell line stably expressing the human Na^+-taurocholate cotransporter (NTCP; SLC10A1) has been previously reported. HepG2-NTCP cells were grown in modified Eagle's medium-α containing 10% fetal bovine serum and 1% penicillin/streptomycin. The cells were grown at 37°C in 5% CO2. The chicken LMH hepatoma cell line (ATCC, Manassus, VA, USA) was grown in Waymouth's MB 752/1 medium (ATCC) with 10 fetal bovine serum. The Xenopus laevis A6 kidney cell line (ATCC) was grown in 75% NCTC 109 medium, 15% distilled water, and 10% fetal bovine serum at 26°C in 2% CO2. Except as noted above, all media and media supplements for the HepG2 and A6 cell lines were obtained from Invitrogen (Carlsbad, CA, USA). Co-transfections and transactivations assays were performed as previously described. The maximal activators and their concentrations were as follows: chVDR, xlVDR, and tnVDR - 200 nM 1α,25-(OH)2-vitamin D3; tnFXR - 5 μM GW4064; tnPXR - 50 μM 5α-androstan-3α-ol. All comparisons to maximal activators were done within the same microplate. Luciferase data were normalized to the internal β-galactosidase control and represent means ± SD of the assays. The LBD of chicken VDR was cloned from RNA extracted from the LMH cell line. The LBD of Xenopus laevis VDR was cloned from RNA extracted from the A6 cell line. The LBDs of tnFXR, tnVDR, and tnPXR were cloned from total RNA extracted from Tetraodon liver using sequence information from the draft Tetraodon nigriviridis genome. The LBDs of chVDR (amino acid residues 113-451), xlVDR (amino acid residues 91-422), tnFXR (amino acid residues 180-463), tnVDR (amino acid residues 91-426), and tnPXR (amino acid residues 202-483) were inserted into the pM2-GAL4 vector to create GAL4/LBD chimeras.

[2] = molecular target: T1, tnPXR (Tetraodon PXR, GAL4/LBD); design: species or system HepG2-NTCP; GAL4/LBD chimera luciferase transactivation, normalised to beta-galactosidase, efficacy relative to maximal activator; settings: agonist
Method: as §1

[3] = molecular target: T2, tnPXR (Tetraodon PXR, GAL4/LBD) (Tetraodon nigroviridis, UniProt H3D8U6); experiment: GAL4/LBD luciferase transactivation; assay type: cell-based; settings: agonist, HepG2-NTCP cells
T2 construct: cloned from liver RNA

[4] = system: T3, tnFXR (Tetraodon FXR, GAL4/LBD); experiment: GAL4/LBD luciferase transactivation; assay type: cell-based, Tetraodon nigroviridis; settings: agonist, HepG2-NTCP cells
T3 construct: gene NR1H4; cloned from liver RNA

[5] = molecular target: T4, tnVDR (Tetraodon VDR alpha, GAL4/LBD) (Tetraodon nigroviridis, UniProt A0A0A1CGS5); experiment: cell-based; design: GAL4/LBD chimera luciferase transactivation, normalised to beta-galactosidase, efficacy relative to maximal activator; settings: HepG2-NTCP; relative to 200 nM 1α,25-(OH)2-vitamin D3; read-out: Efficacy
T4 construct: gene VDRa; cloned from liver RNA
T4 sequence (A0A0A1CGS5 91-420): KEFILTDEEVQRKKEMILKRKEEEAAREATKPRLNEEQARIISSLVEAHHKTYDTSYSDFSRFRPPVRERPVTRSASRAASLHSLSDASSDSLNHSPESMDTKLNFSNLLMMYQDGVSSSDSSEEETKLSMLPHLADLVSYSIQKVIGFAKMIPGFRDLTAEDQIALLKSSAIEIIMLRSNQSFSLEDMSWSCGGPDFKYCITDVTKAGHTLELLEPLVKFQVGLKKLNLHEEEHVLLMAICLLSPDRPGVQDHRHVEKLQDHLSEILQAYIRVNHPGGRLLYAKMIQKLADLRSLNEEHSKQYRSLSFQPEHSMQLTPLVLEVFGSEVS
Method: as §1

[6] = molecular target: T5, chVDR (chicken VDR, GAL4/LBD) (Gallus gallus, UniProt O42392); experiment: cell-based
T5 sequence (O42392 113-451): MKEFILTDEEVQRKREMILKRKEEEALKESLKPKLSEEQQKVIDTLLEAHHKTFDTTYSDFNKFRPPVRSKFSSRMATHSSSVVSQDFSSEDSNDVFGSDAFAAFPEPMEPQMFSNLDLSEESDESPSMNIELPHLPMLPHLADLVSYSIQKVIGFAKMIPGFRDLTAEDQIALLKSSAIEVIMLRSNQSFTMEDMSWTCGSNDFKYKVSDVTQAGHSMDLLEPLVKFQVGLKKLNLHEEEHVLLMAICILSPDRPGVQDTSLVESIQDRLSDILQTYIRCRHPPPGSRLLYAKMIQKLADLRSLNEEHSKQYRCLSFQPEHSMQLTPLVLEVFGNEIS

[7] = reference maximal activator ([…])

SMILES	Emax [1] [%]	EC50 [2] [µM]	further results
C[C@]12CC[C@@H]3c4ccc(O)cc4CC[C@H]3[C@@H]1CC[C@@H]2O [Estradiol]	47	9.6	
C[C@H](CCCC(CO)COS(=O)(=O)O)[C@H]1CC[C@H]2[C@@H]3[C@H](O)C[C@H]4C[C@H](O)CC[C@]4(C)[C@H]3C[C@H](O)[C@]12C (stereo partly drawn) [5α-Cyprinol-27-sulfate]		8.2	
C[C@H](CCC(=O)NCCS(=O)(=O)O)[C@H]1CC[C@H]2[C@@H]3[C@H](O)C[C@@H]4C[C@H](O)CC[C@]4(C)[C@H]3CC[C@]12C [TCDCA, taurochenodeoxycholic acid]	59		EC50 [3]: 4.8 ± 0.3 µM
CC(=O)[C@H]1CC[C@H]2[C@@H]3CC=C4C[C@@H](O)CC[C@]4(C)[C@H]3CC[C@]12C [Pregnenolone]	34	3.3	
CC(C)c1onc(-c2c(Cl)cccc2Cl)c1COc1ccc(/C=C/c2cccc(C(=O)O)c2)c(Cl)c1 [GW4064]			EC50 [4, 7]: 2.8 ± 0.8 µM
C[C@H](CCC(=O)O)[C@H]1CC[C@H]2[C@@H]3CC[C@@H]4C[C@@H](O)CC[C@]4(C)[C@H]3CC[C@]12C [Iso-LCA]			Emax [5]: 4%
O=S(=O)(c1ccccc1)N(CC(F)(F)F)c1ccc(C(O)(C(F)(F)F)C(F)(F)F)cc1 [T-0901317]	17	7.7	
C[C@H](CCC(=O)O)[C@H]1CC[C@H]2[C@@H]3CC[C@@H]4C[C@H](O)CC[C@]4(C)[C@H]3C[C@H](O)[C@]12C [Deoxycholic acid]	33	9	
CC(=O)[C@H]1CC[C@H]2[C@@H]3CC[C@@H]4CC(=O)CC[C@]4(C)[C@H]3CC[C@]12C [5β-pregnane-3,20-dione]			EC50 [3]: 4 µM
C[C@]12CC[C@H](OS(=O)(=O)O)CC1=CC[C@@H]1[C@@H]2CC[C@]2(C)C(=O)CC[C@@H]12 [DHEA_sulfate]	70	8.5	
C[C@@]12CCC[C@H]1[C@@H]1CC[C@H]3C[C@H](O)CC[C@]3(C)[C@H]1CC2 [5α-androstan-3α-ol]			EC50 [3, 7]: 6.1 ± 0.7 µM
C[C@H](CCC(=O)O)[C@H]1CC[C@H]2[C@@H]3[C@H](O)C[C@@H]4C[C@H](O)CC[C@]4(C)[C@H]3CC[C@]12C [CDCA, 3α,7α-dihydroxy-5β-cholan-24-oic acid]	38	15.6	
C[C@H](CCC(=O)O)[C@H]1CC[C@H]2[C@@H]3CC[C@H]4CCCC[C@]4(C)[C@H]3CC[C@]12C [5α-Cholan-24-oic acid]			Emax [5]: 3%
CCCCOC(=O)c1ccc(N)cc1 [n-butyl 4-amino benzoate]	88		EC50 [3]: 25.6 ± 1.4 µM
CC(=O)[C@H]1CC[C@H]2[C@@H]3CC[C@@H]4CC(=O)CC[C@]4(C)[C@H]3CC[C@]12C [5β-Pregnanedione]	73		
CC(=O)[C@H]1CC[C@H]2[C@@H]3CCC4=CC(=O)CC[C@]4(C)[C@H]3CC[C@]12C [Progesterone]	33	8.9	
C=C1CC[C@H](O)C/C1=C/C=C1\CCC[C@]2(C)[C@@H]([C@H](C)CCCC(C)(C)O)CC[C@@H]12 [25-Hydroxyvitamin D3]			Emax [5]: 110%
CC(=O)O[C@@H]1CC[C@@]2(C)[C@H](CC[C@@H]3[C@@H]2CC[C@]2(C)[C@@H]([C@H](C)CCC(=O)O)CC[C@@H]32)C1 [LCA acetate]			Emax [5]: 61%
C[C@H](CCC(=O)NCCS(=O)(=O)O)[C@H]1CC[C@H]2[C@@H]3CC[C@@H]4C[C@H](O)CC[C@]4(C)[C@H]3CC[C@]12C [Tauro-LCA]	29	19.1	
C[C@H](CCC(=O)O)[C@H]1CC[C@H]2[C@@H]3CC[C@@H]4CC(=O)CC[C@]4(C)[C@H]3CC[C@]12C [3_Keto_LCA]	65	42.3	Emax [5]: 17%
C[C@]12CCC(=O)C=C1CC[C@@H]1[C@@H]2C(=O)C[C@@]2(C)[C@H]1CC[C@]2(O)C(=O)CO [Cortisone]	19	12.2	
C[C@]12CC[C@@H](O)C[C@@H]1CC[C@@H]1[C@@H]2CC[C@]2(C)C=CC[C@@H]12 [5α-Androst-16-en-3α-ol]	58	7.4	
C[C@H](CCC(=O)O)[C@H]1CC[C@H]2[C@@H]3CC[C@@H]4C[C@H](O)CC[C@]4(C)[C@H]3CC[C@]12C [LCA, 3α-hydroxy-5β-cholan-24-oic acid]	10	81	Emax [5]: 12%; EC50 [6]: 50.3 ± 7.4 µM; EC50 [4]: 20.8 ± 1 µM
